Laboratory results taken from patent US20150299250A1, “MACROCYCLIC COMPOUNDS AND USES THEREOF” (ADELAIDE RESEARCH & INNOVATION PTY LTD, priority 2012, published 2015).
Where two headings read alike, the source gives them in different places. Where a SMILES comes first, the peptide text is derived from it. The star is where a group is joined. Cbz = O=C(OCc1ccccc1)*

How the values were obtained:
[1] = tested on: panel of sarcoma cell lines (WE-68, VH-64, STA-ET-1, TC-252); assay: Cell viability assay, panel of four sarcoma cell lines (average); assay type: cell-based; details: for IC50: average of four sarcoma cell lines, read-out: Average IC50 for cancer cell lines; for Therapeutic window: fold change in potency (IC50) against cancer cell line versus normal cell line
Procedure: (§1) Cell viability assays were performed as previously described. Briefly, cells were seeded in 96 well microtiterplates at a density of 3×10^4 cells per well in the presence of the indicated chemical. Cells were harvested 48 hours post-treatment, centrifuged at 1,300×g, washed in phosphate-buffered saline (PBS) and stained with 7AAD solution (2 μg/mL) (7-amino-actinomycin-D, Invitrogen, Carlsbad, Calif.) for 10 mins at room temperature. Viable cells were determined with the use of a FACS Calibur flow cytometer (Becton Dickinson Immunocytometry Systems), and analyzed with the use of FLOWJO (Tree Star, Inc) and GraphPad Prism (GraphPad Software Inc).
(§2) WE-68 and VH-64 Ewing's sarcoma cells were kindly supplied by F. van Valen (Department of Orthopaedic Surgery, Westfalische-Wilhelms-University, Germany).TC-252 and STA-ET-1 Ewing's sarcoma cells were kindly provided by G. Hamilton (Department of Surgery, University of Vienna, Austria) or P. Ambros (Children's Cancer Research Institute, St Anna Children's Hospital, Vienna, Austria). Primary human embryonic fibroblasts or primary human osteoblasts were collected from the Women's and Children's Hospital (North Adelaide, South Australia, Australia) or Royal Adelaide Hospital with patient consent. Mouse Embryonic Fibroblasts (MEFs) and its p53-null derivative were kindly supplied by Guillermina Lozano (Department of Genetics, Anderson Cancer Centre, University of Texas, Houston, Tex., USA). WE-68 cell lines were grown in RPMI-1640 media, whilst human embryonic fibroblasts and MEFs were grown in Dulbecco's Modified Eagle's Medium (DMEM). Media was supplemented with 10% FCS, 1% PSG and 10 mM HEPES. All cells were maintained at 37° C. in a humidified atmosphere of 5% CO2.

[2] = tested on: MEF p53-/- (mouse embryonic fibroblasts lacking p53); assay: Cell viability assay, MEF p53-/-; assay type: cell-based; details: for sensitivity of MEFs lacking p53 (p53-/-) to cytotoxic effects (in words): compared with p53+/+ MEFs
From the text: (§3) Although proteasome inhibitors have been translated from the bench to the clinic over the past decade, their specific mechanisms of action remain poorly understood. As discussed earlier, proteasomal over-activity in tumor cells has been attributed to aberrant degradation of numerous critical cancer-related pro proteins, including the pro-apoptotic tumor suppressor, p53. However, the role of p53 as a downstream mediator of cell death in response to proteasomal inhibition remains unclear. Therefore, we used our small library of CT-L specific proteasome inhibitors (compounds 1-6) to determine the role of p53 in their mechanism of cytotoxic action. For this purpose, we utilized mouse embryonic fibroblasts (MEFs) from transgenic p53^+/+ and p53^−/− littermates. This isogenic pair of cell lines are either competent (MEF p53^+/+) or deficient (MEF p53^−/−) in p53 protein and are used here to assess a potential role for p53 as a downstream inducer of cell death in response to proteasomal inhibition.
as §1
WE-68 and VH-64 Ewing's sarcoma cells were kindly supplied by F. van Valen (Department of Orthopaedic Surgery, Westfalische-Wilhelms-University, Germany).TC-252 and STA-ET-1 Ewing's sarcoma cells were kindly provided by G. Hamilton (Department of Surgery, University of Vienna, Austria) or P. Ambros (Children's Cancer Research Institute, St Anna Children's Hospital, Vienna, Austria). […]

[3] = biological target: T1, 20S proteasome T-L activity (Oryctolagus cuniculus, UniProt G1SWK8); assay: In vitro proteasome activity assay, T-L (Ac-RLR-AMC); assay type: biochemical, rabbit; details: purified 20S proteasome; highest concentration tested 25,000 nM
T1 construct: purchased Boston Biochem
T1 sequence (G1SWK8 1-271): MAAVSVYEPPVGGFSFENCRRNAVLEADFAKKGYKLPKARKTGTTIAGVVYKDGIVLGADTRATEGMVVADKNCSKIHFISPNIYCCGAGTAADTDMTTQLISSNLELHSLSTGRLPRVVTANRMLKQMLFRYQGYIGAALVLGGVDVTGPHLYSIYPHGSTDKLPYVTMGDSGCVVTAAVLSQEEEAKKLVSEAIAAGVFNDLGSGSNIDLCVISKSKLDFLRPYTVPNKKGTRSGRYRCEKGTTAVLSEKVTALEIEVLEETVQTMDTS
Procedure: The assays were performed in vitro using purified 20S proteasome/inhibitor mixtures, with the activity of each subunit of the proteasome assessed upon incubation with its respective target peptide.
Purified rabbit 20S proteasome and fluorogenic CT-L substrate (Suc-LLVY-AMC) were purchased from Boston Biochem (Cambridge, Mass., USA). The T-L and CP-L fluorogenic substrates (Ac-RLR-AMC and Z-nLPnLD-AMC) were purchased from Enzo Life Sciences (Farmingdale, N.Y., USA). The 20S proteasome was diluted to 0.2 μg/μL in 20S proteasome buffer (50 mM HEPES pH 7.6, 150 mM NaCl and 1 mM DDT) and stored at −80° C. Purified 20S proteasome (8 ng) was pre-incubated with the indicated concentrations of inhibitors for 15 minutes and subsequently added to the AMC-labeled substrate peptide (50 μM) in assay buffer (25 mM HEPES, pH 7.5, 0.5 mM EDTA, 0.05% NP-40, and 0.001% SDS (w/v)) at 37° C. for 2 hours.

[4] = tested on: MEF p53+/+ (mouse embryonic fibroblasts); assay: Cell viability assay, MEF p53+/+; assay type: cell-based
From the text: as §3, §1, §2

[5] = tested on: p53 protein; assay: Western blot analysis of p53 protein expression in MEF p53+/+; assay type: cell-based, mouse; details: MEFs p53+/+, 16 hours treatment
Procedure: Dose-response curves are provided in Supplementary Figure S3. Compound 1 was not assayed using this system.
Western blot analyses were performed as previously described. Briefly, cells were harvested and lysed in 50 mM Tris-HCl (pH 7.5), 250 mM NaCl, 1 mM EDTA, 50 mM NaF, 0.5% TritonX-10, 0.5 mM Na3VO4 and 1× […] inhibitor (Roche, Indianapolis, Ind., USA). Lysates were incubated on ice for 8 minutes and sonicated using a Vibra-Cell VCX130 (Sonics & Materials, Inc) at 25% amplitude for 10 seconds. Protein concentrations were assayed with the bicinchoninic acid assay (Thermo Scientific, Massachusetts, USA) and subsequently resolved using a 10% SDS-PAGE gel. Proteins were transferred onto a nitrocellulose membrane (Hybond-C Extra, Amersham Biosciences), blocked (10% milk/TBST; 30 mins), hybridized with the appropriate primary or HRP-conjugated secondary antibody and subsequently visualized using Enhanced Chemiluminescence (Amersham Biosciences).
Antibodies used included a mouse anti-β-actin (Sigma), anti-p53 (1C12-mouse specific) (Cell Signalling, Danvers, Mass., USA), sheep anti-mouse IgG-HRP (Amersham Biosciences, Piscataway, N.J., USA), or donkey anti-rabbit IgG-HRP (Amersham Biosciences).

[6] = Mus musculus, Fibroblast; read-out: IC50 in MEF p53+/+

SMILES	IC50 [1]	Therapeutic window [1]	sensitivity of MEFs lacking p53 (p53-/-) to cytotoxic effects (in words) [2]	IC50 [3]	IC50 [4, 6]	more potency against cancer cells over normal cells [1]	p53 protein levels [5]	IC50 ([2]; Mus musculus, Fibroblast, read-out: IC50 in MEF p53-/-)	MEF p53+/+ more sensitive compared to MEF p53-/- [4]	IC50 ([4]; Mus musculus, Fibroblast, read-out: IC50 in MEF p53+/+)
C#CCOc1ccc(C[C@@H](C=O)NC(=O)[C@@H](NC(=O)[C@H](CCCCN=[N+]=[N-])NC(=O)OCc2ccccc2)[C@@H](C)CC)cc1 [Compound 5]	880 nM	×14.1	resistant	> 25000 nM	2700 to 10300 nM	–	–	–	–	–
C#CCOc1ccc(C[C@@H](C=O)NC(=O)[C@H](CC(C)C)NC(=O)[C@H](CCN=[N+]=[N-])NC(=O)OCc2ccccc2)cc1 [Compound 2]	4300 nM	×5.0	–	> 25000 nM	2700 to 10300 nM	–	–	–	–	–
C#CCOc1ccc(C[C@@H](C=O)NC(=O)[C@H](CC(C)C)NC(=O)[C@H](CCCCN=[N+]=[N-])NC(=O)OCc2ccccc2)cc1 [Compound 4]	4200 nM	×5.9	–	> 25000 nM	2700 to 10300 nM	–	–	–	–	–
C#CCOc1ccc(C[C@@H](C=O)NC(=O)[C@H](CC(C)C)NC(=O)[C@H](CCCN=[N+]=[N-])NC(=O)OCc2ccccc2)cc1 [Compound 3]	1600 nM	×8.7	–	> 25000 nM	2700 to 10300 nM	–	–	–	–	–
C#CCOc1ccc(C[C@@H](C=O)NC(=O)[C@H](CC(C)C)NC(=O)[C@H](Cc2ccc(N=[N+]=[N-])cc2)NC(=O)OCc2ccccc2)cc1 [Compound 6]	1500 nM	×19.0	resistant	> 25000 nM	2700 to 10300 nM	19 fold	–	–	–	–
CC(C)C[C@@H](C=O)NC(=O)[C@H](CC(C)C)NC(=O)[C@H](CC(C)C)NC(=O)OCc1ccccc1 [MG132, reference compound] (Cbz-Leu-Leu-Leu-aldehyde)	610 nM	×4.5	–	2000 nM	–	–	increase p53 protein levels	940 nM	over 2 fold	410 nM
